Laboratory results: patent US7045624B2, “Compounds and their uses” (Conopco, Inc., priority 2002, dated 2006)

How the values were obtained:
[1] = Cooling effect of synthesised compounds (test not described); settings: ability to elicit a cooling sensation; no test details given
[2] = system: Neurons from trigeminal ganglia of Wistar rats; experiment: Ca2+ response of cultured trigeminal neurons to test compounds (Fura-2 fluorescence); assay type: cell-based; settings: 100 μM final test concentration; cellular Ca2+ levels, cultured rat trigeminal neurons; relative to compound 1 (icilin)
Method: The efficacy of different compounds according to the invention was tested in vitro, by exposing cultured neurons to the compounds and monitoring the cellular Ca^2+ levels.
The compounds were dissolved in DMSO by ultrasonication to a 0.1 M solution. 5 μl of this stock was added to 5 mg of cyclodextrin and 5 ml of 140 Na-tyrode, to achieve a 100 μM final test concentration.
Neurons from trigeminal ganglia of Wistar rats were prepared as described in U.S. Pat. No. 5,811,256. After 24 hours of cultivation, the responsiveness of the neurons to different compounds was measured according to the general procedure described by McKemy et al (Nature, Vol. 416, 2002, 52–58). The test protocol described by McKemy was modified slightly, by using the fluorescent Ca^2+ indicator Fura-2. Detection of the cellular fluorescence signals was performed by videomicroscopical analysis. The neurons were given a cold stimulus by a thermocoupling device and were subsequently tested for responsiveness to the test compounds by superfusion with solutions containing the test compounds while continuously monitoring the cellular Ca^2+ levels.
The results were recorded for compounds 1 to 3 and menthol, and are expressed below, as a percentage compared to the activity for compound 1 (icilin).

[3] = system: mucous membranes (nostrils, lips and eyelids) of the researchers; settings: in contact with mucous membranes (nostrils, lips and eyelids), also when ingested; cited from earlier work

Row | SMILES | cooling effect [1] | Activity (% relative to Compound 1) [2] | sensations of coldness [3]
1 | COc1cccc(C2=CCN(c3ccccc3O)C(=O)N2)c1 [1-(2′-hydroxyphenyl)-4-(3″-methoxyphenyl)-1,2,3,6-tetrahydropyrimidine-2-one] | good cooling effects | – | –
2 | O=C1NC(c2ccccc2)=CCN1c1ccccc1O [1-(2′-hydroxyphenyl)-4-phenyl-1,2,3,6-tetrahydropyrimidine-2-one] | good cooling effects | – | –
3 | O=C1NC(c2cccc([N+](=O)[O-])c2)=CCN1c1ccccc1C(F)(F)F [1-(2′-trifluoromethylphenyl)-4-(3″-nitrophenyl)-1,2,3,6-tetrahydropyrimidine-2-one] | good cooling effects | – | –
4 | O=C1NC(c2cccc([N+](=O)[O-])c2)=CCN1c1ccccc1 [1-phenyl-4-(3″-nitrophenyl)-1,2,3,6-tetrahydropyrimidine-2-one] | good cooling effects | – | –
5 | O=C1NC(c2ccccc2[N+](=O)[O-])=CCN1c1ccccc1O [Compound 1, 1-[2-hydroxyphenyl]-4-[2-nitrophenyl]-1,2,3,6-tetrahydropyrimidine-2-one] | – | 100% | produced sensations of coldness
6 | O=C1NC(c2cccc(Cl)c2)=CCN1c1ccccc1O [Compound 3, 1-(2′-hydroxyphenyl)-4-(3″-chlorophenyl)-1,2,3,6-tetrahydro-pyrimidine-2-one] | – | 35% | –
7 | CC1CCC(C(C)C)C(O)C1 (centres unmarked) [Menthol, 2-isopropyl-5-methyl-cyclohexanol] | – | 42% | –
